Values of other authors as cited in US10314839B2, “Diversion-resistant opioid formulations” (priority 2014, dated 2019).
Structures can show the parent of a compound that is named as a salt.

Columns and labels:
[1] = hydrochloride salt
[2] = system: opioid receptor
[3] = system: opioid receptor; conditions: after oral doses
[4] = system: mu over delta receptor sub-types

| Compound | Solubility in water [1] | Opioid agonist effects / properties [2] | Duration of action [3] [h] | Preferential blocking action between receptor sub-types [4] | Protein binding (in vivo) | Oral bioavailability (oral administration) |
| --- | --- | --- | --- | --- | --- | --- |
| O=C1CC[C@@]2(O)[C@H]3Cc4ccc(O)c5c4[C@@]2(CCN3CC2CC2)[C@H]1O5 [hydrochloride salt of naltrexone, naltrexone] | up to 100 mg/mL |  |  |  |  |  |
| O=C1CC[C@@]2(O)[C@H]3Cc4ccc(O)c5c4[C@@]2(CCN3CC2CC2)[C@H]1O5 [naltrexone] |  | no opioid agonist properties | ~24 | strong preferential blocking action against mu over delta receptor sub-types | approximately 21% | 5-40% |
| C[C@H]1[C@H]2Cc3ccc(O)cc3[C@]1(C)CCN2CC1CC1 [cyclazocine] |  |  | ~24 |  |  |  |
